In the NIST ThermoML archive (doi:10.1016/j.fluid.2007.03.019):

Assay: osmotic coefficient (dimensionless); mn = molality of the nth substance listed, in mol/kg
Conditions: 318.15 K, 101 kPa, Liquid

CCCCn1cc[n+](C)c1.F[P-](F)(F)(F)(F)F [1-butyl-3-methylimidazolium hexafluorophosphate] + CC#N
osmometer
Conditions	osmotic coefficient
m1 = 0.0116	0.76
m1 = 0.019	0.636
m1 = 0.0321	0.477
m1 = 0.0366	0.436
m1 = 0.0544	0.323
m1 = 0.0691	0.278
m1 = 0.0918	0.287
m1 = 0.1015	0.314
m1 = 0.1285	0.415
m1 = 0.1496	0.515
m1 = 0.1789	0.692
m1 = 0.2032	0.857

CCCCn1cc[n+](C)c1.[Br-] [1-butyl-3-methylimidazolium bromide] + O
vapor pressure osmometry
Conditions	osmotic coefficient
m1 = 0.022	0.944
m1 = 0.0461	0.926
m1 = 0.0726	0.894
m1 = 0.1241	0.855
m1 = 0.2702	0.809
m1 = 0.3522	0.785
m1 = 0.3994	0.777
m1 = 0.5204	0.755
m1 = 0.7354	0.726
m1 = 0.9713	0.713
m1 = 1.272	0.701
m1 = 2.024	0.69

CCCCn1cc[n+](C)c1.F[B-](F)(F)F [1-butyl-3-methylimidazolium tetrafluoroborate] + O
vapor pressure osmometry
Conditions	osmotic coefficient
m1 = 0.0101	1.01
m1 = 0.0355	0.992
m1 = 0.044	0.927
m1 = 0.0701	0.887
m1 = 0.0971	0.864
m1 = 0.152	0.808
m1 = 0.1977	0.793
m1 = 0.2891	0.739
m1 = 0.3968	0.672
m1 = 0.4678	0.657
m1 = 0.5632	0.611
m1 = 0.799	0.532
m1 = 1.023	0.473
m1 = 1.468	0.372
m1 = 2.417	0.257

CCCCn1cc[n+](C)c1.F[B-](F)(F)F [1-butyl-3-methylimidazolium tetrafluoroborate] + CC#N
osmometer
Conditions	osmotic coefficient
m1 = 0.0093	0.906
m1 = 0.0203	0.648
m1 = 0.0341	0.462
m1 = 0.0631	0.293
m1 = 0.0795	0.273
m1 = 0.1043	0.314
m1 = 0.1163	0.344
m1 = 0.1359	0.412
m1 = 0.1472	0.462
m1 = 0.1631	0.553
m1 = 0.1791	0.646
m1 = 0.2091	0.872
